This note sets out measurements from patent US5856341A, “Benzo [B] indeno [2,1-D] thiophene compounds, intermediates, processes, compositions and methods” (Eli Lilly and Company, priority 1997, dated 1999).

In assay [1] the test system is MCF-7 breast adenocarcinoma cells. The assay can be described thus: MCF-7 Proliferation Assay (tritiated thymidine incorporation). The class given is cell-based. The note with it: Homo sapiens, MCF7; 48 hours with drug, then tritiated thymidine 4 hours; read-out: ED50 (MCF-7 proliferation). The method, then: MCF-7 breast adenocarcinoma cells (ATCC HTB 22) were maintained in MEM (minimal essential medium, phenol red-free, Sigma, St. Louis, Mo.) supplimented with 10% fetal bovine serum (FBS) (V/V), L-glutamine (2 mM), sodium pyruvate (1 mM), HEPES {(N-[2-hydroxyethyl]piperazine-N'-[2-ethanesulfonic acid]10 mM}, non-essential amino acids and bovine insulin (1 μg/mL) (maintenance medium). Ten days prior to assay, MCF-7 cells were switched to maintenance medium supplemented with 10% dextran coated charcoal stripped fetal bovine serum (DCC-FBS) assay medium) in place of 10% FBS to deplete internal stores of steroids. MCF-7 cells were removed from maintenance flasks using cell dissociation medium (Ca^++ /Mg^++ free HBSS (phenol red-free) supplemented with 10 mM HEPES and 2 mM EDTA). Cells were washed twice with assay medium and adjusted to 80,000 cells/mL. Approximately […] (8,000 cells) were added to flat-bottom microculture wells (Costar 3596) and incubated at 37° C. in a 5% CO2 humidified incubator for 48 hours to allow for cell adherence and equilibration after transfer. Serial dilutions of drugs or DMSO as a diluent control were prepared in assay medium and […] to triplicate microcultures followed by […] assay medium for a final volume of […]. After an additional 48 hours at 37° C. in a 5% CO2 humidified incubator, microcultures were pulsed with tritiated thymidine (1 uCi/well) for 4 hours. Cultures were terminated by freezing at -70° C. for 24 hours followed by thawing and harvesting of microcultures using a Skatron Semiautomatic Cell Harvester. Samples were counted by liquid scintillation using a Wallace BetaPlace β counter. Results in Table 3 below show the ED50 (nM) for certain compounds of the instant invention: […]

The next assay has as its system serum cholesterol. Briefly: Serum cholesterol in ovariectomized rats (Cholesterol Analysis). The note with it: for Serum Cholest. % Decrease verses ovariectomized controls: daily for 4 days, OVX rats. The class given is in vivo, Sprague Dawley rats. On the procedure:
(§1) In the examples illustrating the methods, a postmenopausal model was used in which effects of different treatments upon circulating lipids were determined.
(§2) Seventy-five day old female Sprague Dawley rats (weight range of 200 to 225 g) were obtained from Charles River Laboratories (Portage, Mich.). The animals were either bilaterally ovariectomized (OVX) or exposed to a Sham surgical procedure at Charles River Laboratories, and then shipped after one week. Upon arrival, they were housed in metal hanging cages in groups of 3 or 4 per cage and had ad libitum access to food (calcium content approximately 0.5%) and water for one week. Room temperature was maintained at 22.2°±1.7° C. with a minimum relative humidity of 40%. The photoperiod in the room was 12 hours light and 12 hours dark.
(§3) Dosing Regimen Tissue Collection. After a one week acclimation period (therefore, two weeks post-OVX) daily dosing with test compound was initiated. 17α-ethynyl estradiol or the test compound were given orally, unless otherwise stated, as a suspension in 1% carboxymethylcellulose or dissolved in 20% cyclodextrin. Animals were dosed daily for 4 days. Following the dosing regimen, animals were weighed and anesthetized with a ketamine: xylazine (2:1, V:V) mixture and a blood sample was collected by cardiac puncture. The animals were then sacrificed by asphyxiation with CO2, the uterus was removed through a midline incision, and a wet uterine weight was determined.
Cholesterol Analysis. Blood samples were allowed to clot at room temperature for 2 hours, and serum was obtained following centrifugation for 10 minutes at 3000 rpm. Serum cholesterol was determined using a Boehringer Mannheim Diagnostics high performance cholesterol assay. Briefly the cholesterol was oxidized to cholest-4-en-3-one and hydrogen peroxide. The hydrogen peroxide was then reacted with phenol and 4-aminophenazone in the presence of peroxidase to produce a p-quinone imine dye, which was read spectrophotemetrically at 500 nm. Cholesterol concentration was then calculated against a standard curve.
(§4) Source of Compound: 17α-ethynyl estradiol was obtained from Sigma Chemical Co., St. Louis, Mo.
(§5) Data presented in Table 1 below show comparative results among ovariectomized rats, rats treated with 17α-ethynyl estradiol (EE2; an orally available form of estrogen), and rats treated with certain compounds of the instant invention. […] This uterine response to estrogen is well recognized in the art.
(§6) The data presented in Table 1 below reflects the response of 5 to 6 rats per treatment.

Another assay deals with Eosinophil peroxidase. Briefly: Uterine Eosinophil Peroxidase (EPO) Assay in ovariectomized rats. Format: in vivo, Sprague Dawley rats. The note with it: for Uterine Eosinophil peroxidase, Vmax: daily for 4 days, OVX rats. The method, then:
as §1, §2, §3
Uterine Eosinophil Peroxidase (EPO) Assay. Uteri were kept at 4° C. until time of enzymatic analysis. The uteri were then homogenized in 50 volumes of 50 mM Tris buffer (pH-8.0) containing 0.005% Triton X-100. Upon addition of 0.01% hydrogen peroxide and 10 mM O-phenylenediamine (final concentrations) in Tris buffer, increase in absorbance was monitored for one minute at 450 nm. The presence of eosonophils in the uterus is an indication of estrogenic activity of a compound. The maximal velocity of a 15 second interval was determined over the initial, linear portion of the reaction curve.
as §4
As is expressed in the data below, estrogenicity also was assessed by evaluating the adverse response of eosinophil infiltration into the uterus.
as §6

The next assay relates to uterus. The assay can be described thus: Uterine weight in ovariectomized rats, 4 days daily oral dosing (postmenopausal model). The class given is in vivo, Sprague Dawley rats. The note with it: for Uterine Weight % Increase verses ovariectomized controls: daily for 4 days, OVX rats. On the procedure: as §1, §2, §3, §4, §5, §6
The next assay concerns femur. The assay can be described thus: Osteoporosis Test Procedure: bone protection in ovariectomized rats, 35 days oral. Format: in vivo. On the procedure:
Following the General Preparation Procedure, infra, the rats are treated daily for 35 days (6 rats per treatment group) and sacrificed by carbon dioxide asphyxiation on the 36th day. The 35 day time period is sufficient to allow maximal reduction in bone density, measured as described herein. At the time of sacrifice, the uteri are removed, dissected free of extraneous tissue, and the fluid contents are expelled before determination of wet weight in order to confirm estrogen deficiency associated with complete ovariectomy. […] The uteri are then placed in 10% neutral buffered formalin to allow for subsequent histological analysis. The right femurs are excised and digitilized x-rays generated and analyzed by an image analysis program (NIH image) at the distal metaphysis. The proximal aspect of the tibiae from these animals are also scanned by quantitative computed tomography. In accordance with the above procedures, compounds of the instant invention and ethynyl estradiol (EE2) in 20% hydroxypropyl β-cyclodextrin are orally administered to test animals. Distal femur metaphysis and proximal tibiae data are the results of formula I compound treatments compared to intact and ovariectomized test animals. Results are reported as percent protection relative to ovariectomy in Table 2 below.

Where [2] appears, read: 0.1 mg/kg oral, 35 days, relative to ovariectomy.

Consider `c1ccc2c(c1)-c1sc3ccccc3c1C2c1ccc(OCCN2CCCCC2)cc1` (stereo not drawn) [Example 1B, 10-[4-[2-(1-Piperidinyl)ethoxy]phenyl]benzo[b] indeno[2,1-d]thiophene], for which the IC50 in assay [1] was 0.1 µM. In addition, the results for the “Serum Cholest. % Decrease verses ovariectomized controls” value with serum cholesterol (0.1 mg/kg PO), in the assay with serum cholesterol (1 mg/kg PO) and in the assay on serum cholesterol (10 mg/kg PO) were 56.8%, 71.0% and 75.3%, respectively. For the same molecule, the results for the “Uterine Eosinophil peroxidase, Vmax” value with Eosinophil peroxidase (0.1 mg/kg PO), in the assay on Eosinophil peroxidase (1 mg/kg PO) and with Eosinophil peroxidase (10 mg/kg PO) were 4.8, 34.2 and 50.4, respectively. Further, the “Uterine Weight % Increase verses ovariectomized controls” value in the assay on uterus (0.1 mg/kg PO) is listed as 21%; with uterus (1 mg/kg PO), 31.8%; in the assay on uterus (10 mg/kg PO) it was 27.7%.
Regarding `COc1ccc2c(c1)C(O)(c1ccc(OCCN3CCCCC3)cc1)c1c-2sc2cc(OC)ccc12` (stereo not drawn) [Example 3B, 10-[4-[2-(1-Piperidinyl)ethoxy]phenyl]-2,7-dimethoxy benzo[b]indeno[2,1-d]thiophen-10-ol], the “Serum Cholest. % Decrease verses ovariectomized controls” value in the assay on serum cholesterol (0.1 mg/kg PO) amounted to 43.5%; in the assay on serum cholesterol (1 mg/kg PO) it was 62.5%; in the assay with serum cholesterol (10 mg/kg PO), 69.2%. Besides, the entries for the “Uterine Eosinophil peroxidase, Vmax” value in the assay on Eosinophil peroxidase (0.1 mg/kg PO), in the assay on Eosinophil peroxidase (1 mg/kg PO) and with Eosinophil peroxidase (10 mg/kg PO) were 36.0, 36.6 and 19.2, respectively. For the same molecule, the “Uterine Weight % Increase verses ovariectomized controls” value in the assay with uterus (0.1 mg/kg PO) stood at 50.4%; in the assay with uterus (1 mg/kg PO), 43.0%; with uterus (10 mg/kg PO), 28.2%.
Turning to `Oc1ccc2c(c1)-c1sc3cc(O)ccc3c1C2c1ccc(OCCN2CCCCC2)cc1` (stereo not drawn) [Example 2, 10-[4-[2-(1-Piperidinyl)ethoxy]phenyl]-3,7-dihydroxy benzo[b]indeno[2,1-d]thiophene], the IC50 in assay [1] stood at 0.0001 µM. Besides, the “Serum Cholest. % Decrease verses ovariectomized controls” value was found to be 41.4% in the assay with serum cholesterol (0.1 mg/kg PO), 52.5% with serum cholesterol (1 mg/kg PO) and 66.3% in the assay with serum cholesterol (10 mg/kg PO). Also, the results for the “Uterine Eosinophil peroxidase, Vmax” value in the assay with Eosinophil peroxidase (0.1 mg/kg PO), with Eosinophil peroxidase (1 mg/kg PO) and in the assay with Eosinophil peroxidase (10 mg/kg PO) were 4.8, 24.0 and 23.4, respectively. Moreover, the “Uterine Weight % Increase verses ovariectomized controls” value was 14.6% in the assay with uterus (0.1 mg/kg PO), 25.6% in the assay on uterus (1 mg/kg PO) and 18.3% with uterus (10 mg/kg PO).
On to `C#C[C@]1(O)CC[C@H]2[C@@H]3CCc4cc(O)ccc4[C@H]3CC[C@@]21C` [EE2, 17α-ethynyl estradiol, reference compound], for which the “Serum Cholest. % Decrease verses ovariectomized controls” value in the assay with serum cholesterol (0.1 mg/kg PO) stood at 90.5%. Further, the “serum cholesterol, in words” value in the assay on serum cholesterol (oral, compared to ovariectomized control animals) was “caused a decrease in serum cholesterol when orally administered at 0.1 mg/kg/day”. Moreover, in the assay on Eosinophil peroxidase (0.1 mg/kg PO), the “Uterine Eosinophil peroxidase, Vmax” value turned out to be 144.0. In addition, the “eosinophil infiltration into the uterus, in words” value in the assay with Eosinophil peroxidase (stromal layer of ovariectomized rats) was “substantial, expected increase in eosinophil infiltration”. In addition, in the assay on femur (setting [2]), the “Femur BMD % protection” value is recorded as 76.3% and the “Femur. % Protection (x-ray image)” value came to 99.1%. Also, in the assay with femur (oral, OVX rats, femur density), the “prevention of bone loss, in words” value is reported as “prevents this loss”. For the same molecule, the “Uterine Weight % Increase verses ovariectomized controls” value in the assay on uterus (0.1 mg/kg PO) is listed as 169.5%. The “uterine weight, in words” value in the assay on uterus (oral, compared to ovariectomized animals) is listed as “uterine weight was substantially greater than the uterine weight of ovariectomized test animals”.
Turning to `COc1ccc2c(c1)-c1sc3cc(OC)ccc3c1C2c1ccc(OCCN2CCCCC2)cc1` (stereo not drawn) [Example 1A, 10-[4-[2-(1-Piperidinyl)ethoxy]phenyl]-3,7-dimethoxybenzo[b]indeno[2,1-d]thiophene], the IC50 in assay [1] came out at 0.2 µM. Also, the figures for the “Serum Cholest. % Decrease verses ovariectomized controls” value in the assay with serum cholesterol (0.1 mg/kg PO), with serum cholesterol (1 mg/kg PO) and in the assay on serum cholesterol (10 mg/kg PO) were 59.1%, 47.7% and 68.7%, respectively. In addition, the “Uterine Eosinophil peroxidase, Vmax” value in the assay on Eosinophil peroxidase (0.1 mg/kg PO) was determined as 7.2; in the assay on Eosinophil peroxidase (1 mg/kg PO) it was 30.3; in the assay on Eosinophil peroxidase (10 mg/kg PO), 21.9. The “Uterine Weight % Increase verses ovariectomized controls” value with uterus (0.1 mg/kg PO) came to 19.2%; with uterus (1 mg/kg PO), 21.6%; in the assay on uterus (10 mg/kg PO) it was 26.8%.
`COc1ccc2c3c(sc2c1)-c1ccccc1C3c1ccc(OCCN2CCCCC2)cc1` (stereo not drawn) [Example 5A, 10-[4-[2-(1-Piperidinyl)ethoxy]phenyl]-7-methoxy benzo[b]indeno[2,1-d]thiophene]: the figures for the “Serum Cholest. % Decrease verses ovariectomized controls” value in the assay with serum cholesterol (0.1 mg/kg PO), in the assay with serum cholesterol (1 mg/kg PO) and in the assay with serum cholesterol (10 mg/kg PO) were 59.1%, 74.4% and 60.3%, respectively. The “Uterine Eosinophil peroxidase, Vmax” value in the assay on Eosinophil peroxidase (0.1 mg/kg PO) stood at 6.4; in the assay with Eosinophil peroxidase (1 mg/kg PO), 35.4; in the assay on Eosinophil peroxidase (10 mg/kg PO) it was 31.8. The “Uterine Weight % Increase verses ovariectomized controls” value in the assay on uterus (0.1 mg/kg PO) was found to be 33.8%; in the assay on uterus (1 mg/kg PO) it was 63.5%; in the assay with uterus (10 mg/kg PO), 92.9%.
